Test results reported in patent publication EP4410284A1, “COMPOUND AND METHOD FOR THE TREATMENT OF ZELLWEGER SPECTRUM DISORDER” (Apteeus, priority 2023, dated 2024).
pEC50: −log10 of the molar value. Like-named read-outs stand apart in the source and are kept apart here.

Tests used:
PEX405 cells [1] = experiment: Catalase import immunofluorescence, high-content screening (% importing cells); format: cell-based, human; settings: PEX405 cells, 3 days
GM16513 cells [2] = experiment: as above; format: cell-based, human; settings: GM16513 cells, 3 days; for pEC50 / Emax: Homo sapiens, 72 h, dose response with 6 concentrations; for pEC50: read-out: EC50; for Emax: read-out: Max Efficacy (% Importing cells)
GM16513 cells [3] = format: cell-based; settings: 3 days, PI positive cells (dead cells)
PEX405 cells [4] = format: cell-based; settings: 3 days, PI positive cells (dead cells)

% PI+ cells (GM16513 cells [3]; 1.3 µM) [%] | % PI+ cells (GM16513 cells [3]; 10 µM) [%] | % PI+ cells (PEX405 cells [4]; 1.3 µM) [%] | % PI+ cells (PEX405 cells [4]; 10 µM) [%] | pEC50 (GM16513 cells [2]) | Compound | % Importing cells (PEX405 cells [1]; 1.3 µM) [%] | % Importing cells (PEX405 cells [1]; 10 µM) [%] | % Importing cells (GM16513 cells [2]; 1.3 µM) [%] | % Importing cells (GM16513 cells [2]; 10 µM) [%] | Emax (GM16513 cells [2]) [%]
1 | 3 | 1 | 1 | – | O=C(NO)c1cnc(NC2(c3ccccc3)CC2)nc1 [ACY-738] | 5 | 31 | 31 | 85 | –
2 | 2 | 0 | 1 | – | O=C(NO)c1cnc(NC2(c3cccc(F)c3)CCCCC2)nc1 [ACY-775] | 4 | 9 | 21 | 47 | –
1 | 38 | 1 | 55 | – | Nc1ccc(-c2cccs2)cc1NC(=O)c1ccc2nc(N3CCNCC3)ccc2c1 [ACY-957] | 16 | 13 | 74 | 0 | –
2 | 5 | 1 | 1 | – | CC(C)(C)c1ccc(C(=O)Nc2ccc(C(=O)NO)cc2)cc1 [AES-350] | 5 | 10 | 22 | 45 | –
2 | 3 | 1 | 1 | – | Nc1ccccc1NC(=O)CCCCCCC(=O)Nc1ccccc1 [BML-210] | 7 | 19 | 24 | 73 | –
2 | 2 | 1 | 1 | – | CC(=O)Nc1ccc(C(=O)Nc2ccc(F)cc2N)cc1 [BRD3308] | 4 | 5 | 12 | 16 | –
1 | 1 | 0 | 1 | – | O=C(NO)c1cccc(C(=O)NCCc2ccccc2)c1 [BRD73954] | 3 | 4 | 19 | 23 | –
1 | 3 | 1 | 1 | – | CC(=O)Nc1ccc(C(=O)Nc2cc(-c3cccs3)ccc2N)cc1 [BRD-6929] | 20 | 38 | 66 | 88 | –
2 | 31 | 1 | 35 | – | CC(C)(C)OC(=O)Nc1ccc(-c2cc(C(=O)NCCCCCCC(=O)NO)no2)cc1 [CAY10603] | 22 | 11 | 73 | 85 | –
2 | 23 | 1 | 44 | 6.15 | C#Cc1cccc(Nc2ncnc3cc(OC)c(OCCCCCCC(=O)NO)cc23)c1 [CUDC-101] | 23 | 49 | 60 | 90 | 100
2 | 7 | 0 | 8 | – | Cc1nn(C)cc1CN1CCC(c2ccc(C(=O)Nc3ccccc3N)cc2)CC1 [CXD101] | 19 | 4 | – | – | –

More lines, now with the values behind:

Compound | % PI+ cells (GM16513 cells [3]; 1.3 µM) [%] | % PI+ cells (GM16513 cells [3]; 10 µM) [%] | % PI+ cells (PEX405 cells [4]; 1.3 µM) [%] | % PI+ cells (PEX405 cells [4]; 10 µM) [%] | pEC50 (GM16513 cells [2]) | % Importing cells (PEX405 cells [1]; 1.3 µM) [%] | % Importing cells (PEX405 cells [1]; 10 µM) [%] | % Importing cells (GM16513 cells [2]; 1.3 µM) [%] | % Importing cells (GM16513 cells [2]; 10 µM) [%] | Emax (GM16513 cells [2]) [%]
COc1cc(C=CC(=O)O)cc(OC)c1O (stereo in doubt) [Sinapinic acid] | – | – | – | – | – | 3 | 3 | 21 | 18 | –
O=C(NO)c1cccc2ccccc12 [1-Naphthohydroxamic acid] | 1 | 1 | 0 | 0 | – | 3 | 2 | 12 | 13 | –
CC(=O)N[C@@H](CCCCN)C(=O)Nc1ccc2c(C)cc(=O)oc2c1 [Ac-Lys-AMC] | 1 | 1 | 0 | 0 | – | 3 | 1 | 18 | 14 | –
Nc1ccccc1NC(=O)c1cnccn1 [BG45] | 1 | 1 | 1 | 2 | – | 4 | 5 | 15 | 30 | –
CCN1CCN(C(c2cccnc2)c2cc(Cl)c3cccnc3c2O)CC1 (centres unmarked) [BRD 4354] | 1 | 3 | 0 | 3 | – | 4 | 10 | 21 | 30 | –
CCCCOc1ccc(CC(=O)NO)cc1 [Bufexamac] | 2 | 1 | 1 | 0 | – | 4 | 50 | 26 | 25 | –
CCOC(=O)c1cnc(NC2(c3ccccc3)CC2)nc1 [CG347B] | 1 | 1 | 1 | 0 | – | 4 | 5 | 25 | 21 | –
O=C(NO)C(c1ccc(-c2ncc(C(F)(F)F)cn2)cc1)c1ccccc1F (centres unmarked) [CHDI-390576] | – | – | – | – | – | 2 | 0 | 10 | 4 | –
O=C(CCCCCCNC(=O)c1cnc(N(c2ccccc2)c2ccccc2Cl)nc1)NO [Citarinostat] | 1 | 4 | 0 | 2 | 5.49 | 9 | 53 | 47 | 90 | 93
Nc1ccccc1NC(=O)c1ccc(CCCC(=O)Nc2ccc([C@@H]3C[C@H]3N)cc2)cc1 [Corin] | 5 | 34 | 2 | 66 | – | 17 | 11 | 59 | 44 | –
Nc1[nH]c(=O)nc2c1ncn2[C@@H]1O[C@H](CO)[C@@H](O)[C@H]1O [Crotonoside] | 1 | 1 | 0 | 1 | – | 3 | 3 | 20 | 18 | –
Cc1ccc(C(=O)NCCCCCC(=O)Nc2ccccc2N)cc1 [RG2833] | 1 | 3 | – | – | – | – | – | – | – | –
Oxamflatin | – | – | – | – | – | 33 | 15 | 99 | 59 | –
